Measurements taken from US12697325B2 (TENNOR THERAPEUTICS (SUZHOU) LIMITED, priority 2021, dated 2026).

Legend:
[1] = 0.5 g, q8 h via infusion for 2 h; cited from earlier work
[2] = system: clinical strains of Acinetobacter baumannii; experiment: Minimum inhibitory concentration (CLSI M07), Example 1, clinical strains; type: cell-based; conditions: combination MIC = sum of the concentrations of the two compounds
Experimental: The minimum inhibitory concentration (MIC) was determined in accordance with the requirements of the Clinical and Laboratory Standards Institute (CLSI) M07 (for aerobic bacteria).
3.1 The compounds were diluted with water up to 100 times of the highest concentration tested.
The dilution steps are as follows: first dilute the compounds or antibiotics to 100 times of the highest final concentration tested, and then:
A 50 μL of sterile water and 50 μL of avibactam sodium mother liquid were added into the A row of the second 96-well plate, and 50 μL of water was added into each of the remaining wells. A 50 μL of liquid was pipetted from the A row and added into the B row; after being pipetted up and down to even, 50 μL of the solution was pipetted and added to the C row, and diluted in a 2-fold gradient in turn for a total of 6 times and then, 50 μL was removed from each well of the G row to obtain the compound solution diluted to a 2-fold gradient and then 4 μL was transferred to a 96-well test plate.
Aerobic bacteria: the strains were inoculated on MHA one day in advance and incubated overnight at 37° C. On the day of the assay, 5-6 single colonies were picked and suspended evenly in saline, and the bacterial concentration was adjusted to the turbidity of 0.5 McFarland standard (concentration is about 1×10^8 CFU/mL). The bacterial suspension was diluted 200 times with the corresponding liquid culture medium (Table 1), i.e., at a bacterial concentration of ~5×10^5 CFU/ml, then 192 μL was transferred to a 96-well round bottom plate to obtain the test plate. Then, the 96-well round bottom plate obtained above was placed into an incubator at 37° C. and 85% humidity to incubate for 20 h.

Structure (SMILES) | Part of the dosing interval with plasma concentration above 4 μg/mL [1] [%] | Part of the dosing interval with plasma concentration above 8 μg/mL [1] [%] | MIC50 ([2]; Acinetobacter baumannii, read-out: MIC50) [µg/mL] | MIC90 ([2]; Acinetobacter baumannii, read-out: MIC90) [µg/mL] | MIC range [2] [µg/mL]
NC(=O)[C@@H]1CC[C@@H]2CN1C(=O)N2OS(=O)(=O)O [Avibactam, [(2S,5R)-2-carbamoyl-7-oxo-1,6-diazabicyclo [3.2.1]oct-6-yl] bisulfate] | 50 | 30 | – | – | –
CC1(C)[C@H](C(=O)[O][Na+])N2C(=O)C[C@H]2S1(=O)=O [Sulbactam sodium, sulbactam sodium] | – | – | 32 | 32 | 8 to 32
